{"source": "PubChem BioAssay AID330", "about": "(DTP/NCI, 2004)", "system": "P388 leukemia ip, CD2F1 mice, survival T/C", "test": "NCI In Vivo Anticancer Drug Screen. Data for tumor model P388 Leukemia (intraperitoneal) in CD2F1 (CDF1) mice", "conditions": "endpoint: median survival time, higher = longer survival", "in_short": "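Mice carrying the transplanted tumor received test compound or vehicle. Survival was recorded in each group, and the value is the treated-group measurement divided by that of the vehicle-treated control group.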", "key": {"[1]": {"conditions": "dose: 25.0 mg/kg/injection, schedule: Q01DX009 (ip), vehicle: saline"}, "[2]": {"conditions": "dose: 50.0 mg/kg/injection, schedule: Q01DX009 (ip), vehicle: saline"}, "[3]": {"conditions": "dose: 400.0 mg/kg/injection, schedule: Q01DX009 (ip), vehicle: saline"}, "[4]": {"conditions": "dose: 100.0 mg/kg/injection, schedule: Q04DX002 (ip), vehicle: saline with Tween-80"}, "[5]": {"conditions": "dose: 200.0 mg/kg/injection, schedule: Q04DX002 (ip), vehicle: saline with Tween-80"}, "[6]": {"conditions": "dose: 25.0 mg/kg/injection, schedule: Q01DX009 (ip), vehicle: saline with Tween-80"}, "[7]": {"conditions": "dose: 50.0 mg/kg/injection, schedule: Q01DX009 (ip), vehicle: saline with Tween-80"}, "[8]": {"conditions": "dose: 100.0 mg/kg/injection, schedule: Q01DX009 (ip), vehicle: saline with Tween-80"}, "[9]": {"conditions": "dose: 60.0 mg/kg/injection, schedule: Q01DX005 (ip), vehicle: saline with Tween-80"}}, "note": "Several values for one entry are separate records, joined by “and”; a condition that tells them apart may be missing. Identical values can stand only once. Inconclusive results and toxic doses are left out.", "data": [{"smiles": "CNC(=O)Oc1ccc[nH]c1=O", "values": [{"measurement": "T/C", "setting": "dose: 16.0 mg/kg/injection, schedule: Q01DX009 (ip), vehicle: saline with Tween-80", "result": "106 % of control and 110 % of control"}, {"measurement": "T/C", "setting": "[1]", "result": "106 % of control and 112 % of control"}, {"measurement": "T/C", "setting": "dose: 25.0 mg/kg/injection, schedule: Q01DX009 (sc), vehicle: saline", "result": "102 % of control and 109 % of control"}, {"measurement": "T/C", "setting": "dose: 32.0 mg/kg/injection, schedule: Q01DX009 (ip), vehicle: saline with Tween-80", "result": "112 % of control and 122 % of control"}, {"measurement": "T/C", "setting": "[2]", "result": "116 % of control and 120 % of control"}, {"measurement": "T/C", "setting": "dose: 50.0 mg/kg/injection, schedule: Q01DX009 (sc), vehicle: saline", "result": "109 % of control and 115 % of control"}, {"measurement": "T/C", "setting": "dose: 64.0 mg/kg/injection, schedule: Q01DX009 (ip), vehicle: saline with Tween-80", "result": "120 % of control"}, {"measurement": "T/C", "setting": "dose: 100.0 mg/kg/injection, schedule: Q01DX009 (sc), vehicle: saline", "result": "111 % of control and 113 % of control"}, {"measurement": "T/C", "setting": "dose: 128.0 mg/kg/injection, schedule: Q01DX009 (ip), vehicle: saline with Tween-80", "result": "120 % of control"}, {"measurement": "T/C", "setting": "dose: 200.0 mg/kg/injection, schedule: Q01DX009 (sc), vehicle: saline", "result": "115 % of control and 120 % of control"}, {"measurement": "T/C", "setting": "[3]", "result": "153 % of control"}, {"measurement": "T/C", "setting": "dose: 400.0 mg/kg/injection, schedule: Q01DX009 (sc), vehicle: saline", "result": "122 % of control"}]}, {"smiles": "CSc1nc(N(C)C)c2cnn(C3CCCCO3)c2n1", "note": "(stereo unspecified)", "values": [{"measurement": "T/C", "setting": "[4]", "result": "97 % of control"}, {"measurement": "T/C", "setting": "[5]", "result": "100 % of control"}, {"measurement": "T/C", "setting": "dose: 400.0 mg/kg/injection, schedule: Q04DX002 (ip), vehicle: saline with Tween-80", "result": "100 % of control"}]}, {"smiles": "CC(=O)NC1C(OC(C)=O)OC(CS[As](C)C)C(OC(C)=O)C1OC(C)=O", "note": "(stereo unspecified)", "values": [{"measurement": "T/C", "setting": "[6]", "result": "118 % of control"}, {"measurement": "T/C", "setting": "[7]", "result": "111 % of control"}]}, {"smiles": "O=C(O)c1ccc(SSc2ccc(C(=O)O)cc2)cc1", "values": [{"measurement": "T/C", "setting": "dose: 12.5 mg/kg/injection, schedule: Q01DX009 (ip), vehicle: saline with Tween-80", "result": "97 % of control"}, {"measurement": "T/C", "setting": "[6]", "result": "106 % of control"}, {"measurement": "T/C", "setting": "[7]", "result": "103 % of control"}, {"measurement": "T/C", "setting": "[8]", "result": "111 % of control"}]}, {"smiles": "Cc1nc2c(N)nn(C)c2nc1C", "values": [{"measurement": "T/C", "setting": "[7]", "result": "105 % of control"}, {"measurement": "T/C", "setting": "[8]", "result": "110 % of control"}, {"measurement": "T/C", "setting": "dose: 200.0 mg/kg/injection, schedule: Q01DX009 (ip), vehicle: saline with Tween-80", "result": "110 % of control"}]}, {"smiles": "Cc1c2cnccc2c(C)c2c1c1ccccc1n2CCCCCCCCCCCCn1c2ccccc2c2c(C)c3cnccc3c(C)c21", "values": [{"measurement": "T/C", "setting": "dose: 25.0 mg/kg/injection, schedule: Q04DX002 (ip), vehicle: saline with Tween-80", "result": "98 % of control"}, {"measurement": "T/C", "setting": "dose: 50.0 mg/kg/injection, schedule: Q04DX002 (ip), vehicle: saline with Tween-80", "result": "100 % of control"}, {"measurement": "T/C", "setting": "[4]", "result": "100 % of control"}, {"measurement": "T/C", "setting": "[5]", "result": "98 % of control"}]}, {"smiles": "COc1ccc(C2C3=C(CCCC3=O)Oc3cc4c(cc32)OCO4)cc1", "note": "(stereo unspecified)", "values": [{"measurement": "T/C", "setting": "dose: 7.5 mg/kg/injection, schedule: Q01DX005 (ip), vehicle: saline with Tween-80", "result": "100 % of control"}, {"measurement": "T/C", "setting": "dose: 15.0 mg/kg/injection, schedule: Q01DX005 (ip), vehicle: saline with Tween-80", "result": "94 % of control"}, {"measurement": "T/C", "setting": "dose: 30.0 mg/kg/injection, schedule: Q01DX005 (ip), vehicle: saline with Tween-80", "result": "92 % of control"}, {"measurement": "T/C", "setting": "[9]", "result": "90 % of control and 91 % of control"}]}, {"smiles": "N#CC(C(=O)C(=O)Nc1cccc(C(F)(F)F)c1)c1ccc(Cl)cc1Cl", "note": "(stereo unspecified)", "values": [{"measurement": "T/C", "setting": "[9]", "result": "94 % of control"}, {"measurement": "T/C", "setting": "dose: 120.0 mg/kg/injection, schedule: Q01DX005 (ip), vehicle: saline with Tween-80", "result": "91 % of control"}, {"measurement": "T/C", "setting": "dose: 240.0 mg/kg/injection, schedule: Q01DX005 (ip), vehicle: saline with Tween-80", "result": "92 % of control"}]}, {"smiles": "CC(=O)Oc1ccc(N=Cc2cc3c(cc2[N+](=O)[O-])OCO3)cc1", "values": [{"measurement": "T/C", "setting": "dose: 12.5 mg/kg/injection, schedule: Q01DX009 (ip), vehicle: other", "result": "113 % of control"}, {"measurement": "T/C", "setting": "dose: 25.0 mg/kg/injection, schedule: Q01DX009 (ip), vehicle: other", "result": "117 % of control"}, {"measurement": "T/C", "setting": "dose: 50.0 mg/kg/injection, schedule: Q01DX009 (ip), vehicle: other", "result": "109 % of control"}, {"measurement": "T/C", "setting": "dose: 100.0 mg/kg/injection, schedule: Q01DX009 (ip), vehicle: other", "result": "93 % of control"}, {"measurement": "T/C", "setting": "dose: 200.0 mg/kg/injection, schedule: Q01DX009 (ip), vehicle: other", "result": "92 % of control"}, {"measurement": "T/C", "setting": "dose: 400.0 mg/kg/injection, schedule: Q01DX009 (ip), vehicle: other", "result": "96 % of control"}]}, {"smiles": "NC(=S)SCCC(=O)N1CCCCC1", "values": [{"measurement": "T/C", "setting": "dose: 25.0 mg/kg/injection, schedule: Q04DX002 (ip), vehicle: Klucel (hydroxypropylcellulose) (HPC)", "result": "101 % of control"}, {"measurement": "T/C", "setting": "dose: 50.0 mg/kg/injection, schedule: Q04DX002 (ip), vehicle: Klucel (hydroxypropylcellulose) (HPC)", "result": "95 % of control"}, {"measurement": "T/C", "setting": "dose: 100.0 mg/kg/injection, schedule: Q04DX002 (ip), vehicle: Klucel (hydroxypropylcellulose) (HPC)", "result": "104 % of control and 95 % of control"}]}, {"smiles": "CC1CCCN2C(=O)CN(c3ccccc3)CC(=O)N12", "note": "(stereo unspecified)", "values": [{"measurement": "T/C", "setting": "dose: 50.0 mg/kg/injection, schedule: Q01DX005 (ip), vehicle: saline with Tween-80", "result": "98 % of control"}, {"measurement": "T/C", "setting": "dose: 100.0 mg/kg/injection, schedule: Q01DX005 (ip), vehicle: saline with Tween-80", "result": "103 % of control"}, {"measurement": "T/C", "setting": "dose: 200.0 mg/kg/injection, schedule: Q01DX005 (ip), vehicle: saline with Tween-80", "result": "99 % of control"}]}, {"smiles": "O=C(CCl)c1cccnc1C(=O)O", "values": [{"measurement": "T/C", "setting": "dose: 25.0 mg/kg/injection, schedule: Q01DX009 (ip), vehicle: saline sonified", "result": "100 % of control"}, {"measurement": "T/C", "setting": "dose: 50.0 mg/kg/injection, schedule: Q01DX009 (ip), vehicle: saline sonified", "result": "100 % of control"}, {"measurement": "T/C", "setting": "dose: 100.0 mg/kg/injection, schedule: Q01DX009 (ip), vehicle: saline sonified", "result": "90 % of control"}]}, {"smiles": "CC1(C)C2CC=C(CCOC(=S)S)C1C2.[Ni]", "note": "(stereo unspecified)", "values": [{"measurement": "T/C", "setting": "[6]", "result": "90 % of control"}]}, {"smiles": "COc1cc2c(cc1OC)C13CC(=O)N(C(C)=O)N1CCCN3C2=O", "note": "(stereo unspecified)", "values": [{"measurement": "T/C", "setting": "dose: 30.0 mg/kg/injection, schedule: Q01DX005 (ip), vehicle: Klucel (hydroxypropylcellulose) (HPC)", "result": "106 % of control"}, {"measurement": "T/C", "setting": "dose: 60.0 mg/kg/injection, schedule: Q01DX005 (ip), vehicle: Klucel (hydroxypropylcellulose) (HPC)", "result": "97 % of control"}, {"measurement": "T/C", "setting": "dose: 120.0 mg/kg/injection, schedule: Q01DX005 (ip), vehicle: Klucel (hydroxypropylcellulose) (HPC)", "result": "91 % of control and 97 % of control"}, {"measurement": "T/C", "setting": "dose: 240.0 mg/kg/injection, schedule: Q01DX005 (ip), vehicle: Klucel (hydroxypropylcellulose) (HPC)", "result": "88 % of control"}]}, {"smiles": "CCCCCCCCCC[N+](C)(C)CC(O)CO", "note": "(stereo unspecified)", "values": [{"measurement": "T/C", "setting": "dose: 12.5 mg/kg/injection, schedule: Q01DX009 (ip), vehicle: saline", "result": "94 % of control"}, {"measurement": "T/C", "setting": "[1]", "result": "105 % of control"}, {"measurement": "T/C", "setting": "[2]", "result": "111 % of control"}]}, {"smiles": "CC1=NC(C)(CO)CO1", "note": "(stereo unspecified)", "values": [{"measurement": "T/C", "setting": "[2]", "result": "111 % of control"}, {"measurement": "T/C", "setting": "dose: 100.0 mg/kg/injection, schedule: Q01DX009 (ip), vehicle: saline", "result": "111 % of control"}, {"measurement": "T/C", "setting": "dose: 200.0 mg/kg/injection, schedule: Q01DX009 (ip), vehicle: saline", "result": "108 % of control"}, {"measurement": "T/C", "setting": "[3]", "result": "105 % of control"}]}, {"smiles": "Cc1cc(N(CCCl)CCCl)c(C)cc1NC(=O)c1ccccc1", "values": [{"measurement": "T/C", "setting": "dose: 16.5 mg/kg/injection, schedule: Q04DX003 (ip), vehicle: saline with Tween-80", "result": "159 % of control"}, {"measurement": "T/C", "setting": "dose: 25.0 mg/kg/injection, schedule: Q04DX003 (ip), vehicle: saline with Tween-80", "result": "177 % of control"}, {"measurement": "T/C", "setting": "dose: 37.5 mg/kg/injection, schedule: Q04DX003 (ip), vehicle: saline with Tween-80", "result": "90 % of control"}, {"measurement": "T/C", "setting": "dose: 50.0 mg/kg/injection, schedule: Q04DX003 (ip), vehicle: saline with Tween-80", "result": "90 % of control"}]}]}
